Measurements reported in PMC6838151 (Scientific Reports, 2019).
≈ marks a conversion by molar mass, not a printed value. Where two headings read alike, the source gives them in different places.

What was measured:
[1] = test system: S. cerevisiae WT (BY4741); assay: MIC50 growth inhibition, S. cerevisiae wt BY4741, 48 h; assay type: cell-based, Saccharomyces cerevisiae; settings: YPD, 30 °C
Text: (§1) For the preliminary studies of the biological activity of the studied compound we chose S. cerevisiae, which is generally considered a non-pathogenic organism, but currently recognized as a potentially important agent causing opportunistic infections against immunocompromised patients. In order to assess whether all the Ke derivatives share the mechanism of action with the parent compound, or if they might present different or additional modes of action, the inhibitory concentration MIC50 (Table 2) was determined on the basis of the dose-response curves (Fig. S11 in ESI) in a 48 h assay against S. cerevisiae wt strain BY4741 and the deletion mutant erg6Δ, which lacks the gene coding for the S-adenosylmethionine: 24-methyltransferase[52], accumulating cholesta-5,7,24-trienol and zymosterol instead of ergosterol. There are several studies reporting that the ERG6 gene deletion may increase the resistance of S. cerevisiae cells to azole compounds[54]–[56]. […] The value determined for the wt strain is in very good agreement with previous studies carried out under similar condition (48 h, 30 °C) (e.g.[57]).
(§2) The following strains of S. cerevisiae were used in this study: BY4741 (wild type towards erg6Δ, ACC Y00000; MATa; his3Δ1; leu2Δ0; met15Δ0; ura3Δ0), erg6Δ (ACC Y00568; BY4741 isogenic with YML008c::kanMX4), W303 (wild type towards AD1-8; MATα; leu2-3,112 trp1-1 can1-100 ura3-1 ade2-1 his3-11,15 AD1-8 (W303 isogenic with pdr1-3, ura3, his1, yor1∆::hisG, snq2∆::hisG, pdr5∆::hisG, pdr10∆::hisG, pdr11∆:: hisG, ycf1∆::hisG, pdr3∆::hisG, pdr15∆::hisG). BY4741 and erg6Δ were acquired from EUROSCARF, Frankfurt, Germany; W303 and AD1-8 were kind gifts from Prof. A. Goffeau, Chaire Internationale Blaise Pascal, Lab. Genet. Mol., École Normale Supérieure, Paris, and Prof. M. Ghislain, Université Catholique de Louvain, Faculté des sciences Agronomiques, Louvain-la-Neuve, Belgium. Visible turbid overnight cultures of S. cerevisiae strains were prepared and diluted to A600 ≈ 0.1 in fresh Yeast Extract – Peptone - Dextrose (YPD) medium. The cultures were transferred to 96 microtiter well plates containing aliquots of serially diluted antifungal drugs (Ke and its derivatives: KeP, KeOP, KeSP, KeSeP), prepared from DMS stock solutions and drug-free controls. The yeast cultures were statically incubated at 30 °C for 48 hours with compounds[88]. The dose-response curves were analysed with GraphPad Prism 5 software (San Diego, USA) or a microplate reader ASYS UVM (Biogenet). All values presented are the mean of at least three independent experiments.

S. cerevisiae erg6Δ = assay: MIC50 growth inhibition, S. cerevisiae erg6Δ deletion mutant, 48 h; assay type: cell-based, Saccharomyces cerevisiae
Text: as §1, §2

S. cerevisiae WT (W303) = assay: MIC50 growth inhibition, S. cerevisiae wt W303, 48 h; assay type: cell-based; settings: Saccharomyces cerevisiae
Text: as §2, with “The cultures were transferred to 96 microtiter well plates containing aliquots of serially diluted antifungal drugs (Ke and its derivatives: KeP, KeOP, KeSP, KeSeP), prepared from DMS stock solutions and drug-free controls.” left out

S. cerevisiae AD1-8 = assay: MIC50 growth inhibition, S. cerevisiae AD1-8 (lacks major ABC transporters), 48 h; assay type: cell-based, Saccharomyces cerevisiae; settings: for MIC50: Saccharomyces cerevisiae
Text: as §2, with “The cultures were transferred to 96 microtiter well plates containing aliquots of serially diluted antifungal drugs (Ke and its derivatives: KeP, KeOP, KeSP, KeSeP), prepared from DMS stock solutions and drug-free controls.” left out

C. albicans B3 = assay: microbe, parasite or virus in culture; assay type: cell-based; settings: Candida albicans
Text: (§3) The C. albicans CAF2-1 (Genotype/Description: ura3Δ::imm434/URA3[89]) and DSY1050 (Genotype/Description: cdr1Δ::hisG/cdr1Δ::hisG/cdr2Δ::hisG/cdr2Δ::hisG/mdr1Δ::hisG-URA3-hisG/mdr1Δ::hisG[90]) strains used in this study were generous gift from D. Sanglard (Lausanne, Switzerland)[91],[92] whereas C. albicans B3 and Gu4 (Genotype/Description: clinical isolates fluconazole sensitive)[93]), B4 (Genotype/Description: Clinical isolate fluconazole resistant due to the overexpression of MDR1[93]) and Gu5 (Genotype/Description: Clinical isolate fluconazole resistant due to the overexpression of CDR1 and CDR2[93]) were a generous gift from prof. S. Milewski (Gdańsk, Poland)[94] and prof. J. Morschhäuser (Wurzburg, Germany)[93]. All strains were grown at 37 °C on Sabouraud medium (Biomerieux).
(§4) The antifungal activity was determined on the 96-well polystyrene microtiter plates (Sarstedt) according to Clinical and Laboratory Standards Institute M27-A3[95]. […] The compounds were dissolved in DMSO (10 mM) and then serially diluted in RPMI-1640 (ThermoFisher) medium to obtain the final concentration range. Inocula of all strains were prepared as suspensions with turbidity of 0.5 McFarland standard in sterile 0.85% saline and diluted in RPMI-1640. After inoculation, each well contained appr. 5 × 10^2 CFU/mL. The plates were cultivated for 48 h at 37 °C. Optical density was measured at A490nm using a microplate reader ASYS UVM 340 (Biogenet).

C. albicans Gu4 = assay: microbe, parasite or virus in culture; assay type: cell-based; settings: Candida albicans, GU4, 48 h
Text: as §3, §4

[2] = Saccharomyces cerevisiae, read-out: MIC50
[3] = AD18, S. cerevisiae AD1-8, YPD, 30 °C, 48 h, read-out: MIC50
[4] = C. albicans B3, RPMI-1640, 37 °C, 48 h, read-out: MIC50
[5] = S. cerevisiae WT (W303), YPD, 30 °C, read-out: MIC50
[6] = S. cerevisiae erg6Δ, YPD, 30 °C

SMILES	MIC50 [1, 2]	MIC50 (S. cerevisiae erg6Δ; Saccharomyces cerevisiae)	MIC50 (S. cerevisiae WT (W303))	MIC50 (S. cerevisiae AD1-8; [3])	MIC50 (C. albicans B3; [4])	MIC50 (C. albicans Gu4)	MIC50 (S. cerevisiae WT (W303); [5])	MIC50 (S. cerevisiae erg6Δ; [6])	MIC50 (S. cerevisiae AD1-8; AD18, 48 h)	MIC50 (C. albicans B3; B3, 48 h)	MIC50 [1]	MIC50 against AD1-8 lower than against W303 cells (S. cerevisiae AD1-8; AD1-8 vs W303)
O=P(CN1CCN(c2ccc(OC[C@H]3CO[C@](Cn4ccnc4)(c4ccc(Cl)cc4Cl)O3)cc2)CC1)(c1ccccc1)c1ccccc1 (racemic) [KeOP, Ph2P(O)CH2-Ke]	0.00416 µM (≈ 0.00293 µg/mL)	0.00482 µM (≈ 0.00339 µg/mL)	3.13 µM (≈ 2.2 µg/mL)	0.05 µM (≈ 0.0352 µg/mL)	1.56 µM (≈ 1.1 µg/mL)	12.5 µM (≈ 8.8 µg/mL)	–	–	–	–	–	–
Clc1ccc([C@@]2(Cn3ccnc3)OC[C@H](COc3ccc(N4CCN(CP(c5ccccc5)c5ccccc5)CC4)cc3)O2)c(Cl)c1 (racemic) [KeP, Ph2PCH2-Ke]	9.02 µM (≈ 6.2 µg/mL)	0.654 µM (≈ 0.45 µg/mL)	–	0.2 µM (≈ 0.138 µg/mL)	0.39 µM (≈ 0.268 µg/mL)	3.13 µM (≈ 2.15 µg/mL)	12.5 µM (≈ 8.6 µg/mL)	–	–	–	–	–
CC(=O)N1CCN(c2ccc(OCC3COC(Cn4ccnc4)(c4ccc(Cl)cc4Cl)O3)cc2)CC1 (stereo not shown) [Ke, ketoconazole, reference compound]	0.865 µM (≈ 0.46 µg/mL)	> 200 µM	–	–	–	25 µM (≈ 13.3 µg/mL)	6.25 µM (≈ 3.32 µg/mL)	no activity	0.02 µM (≈ 0.0106 µg/mL)	0.05 µM (≈ 0.0266 µg/mL)	–	–
S=P(CN1CCN(c2ccc(OC[C@H]3CO[C@](Cn4ccnc4)(c4ccc(Cl)cc4Cl)O3)cc2)CC1)(c1ccccc1)c1ccccc1 [KeSP, Ph2P(S)CH2-Ke]	> 200 µM	> 200 µM	> 200 µM	–	1.56 µM (≈ 1.12 µg/mL)	50 µM (≈ 36 µg/mL)	–	inactive	0.2 µM (≈ 0.144 µg/mL)	–	inactive	more than 3 orders of magnitude
Clc1ccc([C@@]2(Cn3ccnc3)OC[C@H](COc3ccc(N4CCN(CP(=[Se])(c5ccccc5)c5ccccc5)CC4)cc3)O2)c(Cl)c1 [KeSeP, Ph2P(Se)CH2-Ke]	1.24 µM (≈ 0.954 µg/mL)	0.578 µM (≈ 0.443 µg/mL)	–	0.2 µM (≈ 0.153 µg/mL)	3.13 µM (≈ 2.4 µg/mL)	12.5 µM (≈ 9.58 µg/mL)	50 µM (≈ 38.3 µg/mL)	–	–	–	–	–
